# Data: patent publication US20240269139A1, “COMPOUNDS FOR TARGETED PROTEIN DEGRADATION OF KINASES” (DANA-FARBER CANCER INSTITUTE, INC., priority 2020, published 2024)
# Read-outs that look alike come from different tables or passages of the source.
# Assays:
# Type in all cases: cell-based
# [1] = target: T1, protein kinases (human kinome) (Homo sapiens, UniProt O00444)
# T1 sequence (O00444 1-970): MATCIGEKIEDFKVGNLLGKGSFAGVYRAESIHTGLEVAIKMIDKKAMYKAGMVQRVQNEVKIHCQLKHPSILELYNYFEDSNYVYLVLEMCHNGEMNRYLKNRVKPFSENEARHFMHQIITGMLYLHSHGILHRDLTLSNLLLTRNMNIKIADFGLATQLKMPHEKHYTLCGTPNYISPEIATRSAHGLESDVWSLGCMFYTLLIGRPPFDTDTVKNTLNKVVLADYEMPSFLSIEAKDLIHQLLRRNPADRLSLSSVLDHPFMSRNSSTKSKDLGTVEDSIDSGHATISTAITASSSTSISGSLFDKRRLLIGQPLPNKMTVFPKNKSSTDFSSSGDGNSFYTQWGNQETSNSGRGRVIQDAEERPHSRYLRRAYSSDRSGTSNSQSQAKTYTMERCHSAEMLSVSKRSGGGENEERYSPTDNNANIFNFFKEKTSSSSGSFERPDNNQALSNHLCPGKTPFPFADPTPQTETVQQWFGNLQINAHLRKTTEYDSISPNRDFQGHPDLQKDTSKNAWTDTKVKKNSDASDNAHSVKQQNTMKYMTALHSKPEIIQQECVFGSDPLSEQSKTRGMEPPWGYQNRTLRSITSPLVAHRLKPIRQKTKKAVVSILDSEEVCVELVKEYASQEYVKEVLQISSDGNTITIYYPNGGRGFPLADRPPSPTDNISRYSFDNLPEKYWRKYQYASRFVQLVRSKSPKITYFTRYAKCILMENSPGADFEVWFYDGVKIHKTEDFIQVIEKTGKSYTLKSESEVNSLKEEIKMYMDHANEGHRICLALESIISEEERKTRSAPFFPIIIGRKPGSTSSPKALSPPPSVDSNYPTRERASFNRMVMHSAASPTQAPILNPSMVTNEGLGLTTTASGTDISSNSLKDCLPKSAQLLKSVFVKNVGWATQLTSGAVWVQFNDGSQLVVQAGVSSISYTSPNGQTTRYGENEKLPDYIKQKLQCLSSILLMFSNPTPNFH
# [2] = target: protein kinases (human kinome) (Homo sapiens, UniProt O14874); details: BCKDK (O14874)
# [3] = target: protein kinases (human kinome) (Homo sapiens, UniProt P06493); details: CDK1 P06493
# Sequence of protein kinases (human kinome) (Homo sapiens, UniProt P06493) (P06493 whole entry): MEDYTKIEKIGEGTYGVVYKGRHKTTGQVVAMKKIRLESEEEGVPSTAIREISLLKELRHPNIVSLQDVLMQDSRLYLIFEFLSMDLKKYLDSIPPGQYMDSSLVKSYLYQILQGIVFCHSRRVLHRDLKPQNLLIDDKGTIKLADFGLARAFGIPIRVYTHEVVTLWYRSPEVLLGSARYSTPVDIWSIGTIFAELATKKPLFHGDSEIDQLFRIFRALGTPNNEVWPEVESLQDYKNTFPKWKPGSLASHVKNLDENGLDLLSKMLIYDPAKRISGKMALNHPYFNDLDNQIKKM
# [4] = target: protein kinases (human kinome) (Homo sapiens, UniProt Q05397); details: PTK2 Q05397
# Sequence of protein kinases (human kinome) (Homo sapiens, UniProt Q05397) (Q05397 whole entry): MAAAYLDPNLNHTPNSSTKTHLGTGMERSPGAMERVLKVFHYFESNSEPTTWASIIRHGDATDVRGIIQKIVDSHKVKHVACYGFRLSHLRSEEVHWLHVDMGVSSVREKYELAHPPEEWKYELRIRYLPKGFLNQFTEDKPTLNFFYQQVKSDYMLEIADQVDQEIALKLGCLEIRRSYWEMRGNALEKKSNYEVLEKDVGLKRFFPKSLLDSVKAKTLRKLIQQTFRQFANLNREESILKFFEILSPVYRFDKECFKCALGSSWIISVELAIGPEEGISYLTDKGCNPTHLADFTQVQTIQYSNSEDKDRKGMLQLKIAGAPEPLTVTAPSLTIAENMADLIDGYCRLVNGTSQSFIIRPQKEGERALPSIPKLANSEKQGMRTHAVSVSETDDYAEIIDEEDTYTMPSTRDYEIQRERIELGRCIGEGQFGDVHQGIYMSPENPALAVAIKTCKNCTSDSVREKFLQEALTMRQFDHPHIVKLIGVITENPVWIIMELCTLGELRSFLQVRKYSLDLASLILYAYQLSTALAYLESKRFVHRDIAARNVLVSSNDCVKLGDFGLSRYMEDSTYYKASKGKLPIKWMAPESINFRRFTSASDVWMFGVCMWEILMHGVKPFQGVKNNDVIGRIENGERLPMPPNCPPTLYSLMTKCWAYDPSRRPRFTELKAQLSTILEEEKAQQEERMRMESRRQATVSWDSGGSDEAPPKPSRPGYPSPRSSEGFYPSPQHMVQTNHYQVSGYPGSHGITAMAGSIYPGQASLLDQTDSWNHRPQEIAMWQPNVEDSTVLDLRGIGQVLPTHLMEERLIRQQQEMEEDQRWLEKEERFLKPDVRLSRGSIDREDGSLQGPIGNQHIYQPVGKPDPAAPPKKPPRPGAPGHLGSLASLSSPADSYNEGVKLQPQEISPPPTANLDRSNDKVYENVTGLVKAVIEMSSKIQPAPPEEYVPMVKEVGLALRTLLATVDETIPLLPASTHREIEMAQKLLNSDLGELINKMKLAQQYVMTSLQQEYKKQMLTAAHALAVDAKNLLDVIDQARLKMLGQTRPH
# [5] = target: protein kinases (human kinome) (Homo sapiens, UniProt Q9BVS4); details: RIOK2 Q9BVS4; experiment wp076
# Sequence of protein kinases (human kinome) (Homo sapiens, UniProt Q9BVS4) (Q9BVS4 whole entry): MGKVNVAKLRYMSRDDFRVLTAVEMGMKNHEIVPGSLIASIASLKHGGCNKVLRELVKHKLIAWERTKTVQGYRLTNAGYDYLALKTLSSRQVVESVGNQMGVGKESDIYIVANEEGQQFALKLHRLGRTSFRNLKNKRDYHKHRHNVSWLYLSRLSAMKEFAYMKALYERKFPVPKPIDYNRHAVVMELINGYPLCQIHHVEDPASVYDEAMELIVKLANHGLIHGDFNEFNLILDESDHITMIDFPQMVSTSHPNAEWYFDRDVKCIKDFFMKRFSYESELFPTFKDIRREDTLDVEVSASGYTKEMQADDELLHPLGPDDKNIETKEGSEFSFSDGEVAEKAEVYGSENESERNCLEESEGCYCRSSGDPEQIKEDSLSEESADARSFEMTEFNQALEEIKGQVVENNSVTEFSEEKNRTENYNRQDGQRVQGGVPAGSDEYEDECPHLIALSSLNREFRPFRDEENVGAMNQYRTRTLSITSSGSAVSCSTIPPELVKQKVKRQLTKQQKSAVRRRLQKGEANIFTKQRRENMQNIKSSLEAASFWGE
# [6] = experiment wp084, direction down
# [7] = experiment wp147, 4 uM, direction down
structure (smiles),measurement,setting,value
CC(C)S(=O)(=O)c1ccccc1Nc1nc(Nc2ccc(N3CCN(CCOCCOCCC(=O)NCCNc4cccc5c4CN(C4CCC(=O)NC4=O)C5=O)CC3)cc2)ncc1Cl (stereo not shown) [TL13.97],logFC PLK4,"[1]; Accession O00444, experiment wp137, direction down",−1.049
same,logFC PLK4,"[1]; PLK4 (O00444), experiment wp137",−1.049
CN(C)C(=O)c1cc2cnc(Nc3ccc(N4CCN(CCCCNC(=O)COc5cccc6c5C(=O)N(C5CCC(=O)NC5=O)C6=O)CC4)cn3)nc2n1C1CCCC1 (stereo not shown) [BSJ.04.132],logFC,[2]; experiment wp084,−0.5188
same,logFC,[2]; [6],−0.5188
Cc1ncsc1-c1ccc([C@H](C)NC(=O)[C@@H]2C[C@@H](O)CN2C(=O)[C@@H](NC(=O)CCOCCOCCN2CCN(c3ccc(Nc4ncc(Cl)c(Nc5ccccc5S(=O)(=O)C(C)C)n4)cc3)CC2)C(C)(C)C)cc1 [FMF.06.098.1],logFC PLK4,"[1]; Accession O00444, experiment wp131, direction down",−0.7435
same,logFC PLK4 (O00444),[1]; experiment wp131,−0.7435
same,logFC,[3]; experiment wp131,−0.3535
same,logFC CDK1,[3]; experiment wp131,−0.3535
same,logFC,[4]; experiment wp114,−0.9477
same,logFC PTK2,[4]; experiment wp114,−0.9477
"CS(=O)(=O)Nc1cccc(-c2csc3cnc(Nc4ccc(N5CCN(CCCCCOc6cccc7c6C(=O)N(C6CCC(=O)NC6=O)C7=O)CC5)cc4)nc23)c1 (stereo not shown) [DB0614, N-(3-(2-((4-(4-(5-((2-(2,6-Dioxopiperidin-3-yl)-1,3-dioxoisoindolin-4-yl)oxy)pentyl)piperazin-1-yl)phenyl)amino)thieno[3,2-d]pyrimidin-7-yl)phenyl)methanesulfonamide]",logFC PLK4,"[1]; Accession O00444, experiment wp117, direction down",−0.5414
same,logFC PLK4 (O00444),[1]; experiment wp117,−0.5414
Cc1cc(Nc2ncc(Br)c(Nc3cccc(F)c3C(N)=O)n2)ccc1S(=O)(=O)NCCOCCOCCOCCOCCNc1cccc2c1C(=O)N(C1CCC(=O)NC1=O)C2=O (stereo not shown) [TMX.02.174],logFC,[3]; experiment wp146,−1.629
same,logFC CDK1,[3]; experiment wp146,−1.629
same,logFC,[4]; experiment wp146,−0.8198
same,logFC PTK2,[4]; experiment wp146,−0.8198
CC(C)(C)c1nc(-c2cccc(NS(=O)(=O)c3c(F)cccc3F)c2F)c(-c2ccnc(NCCOCCNC(=O)CCOCCOCCNc3cccc4c3C(=O)N(C3CCC(=O)NC3=O)C4=O)n2)s1 (stereo not shown) [DD.03.106],logFC,[2]; experiment wp137,−0.3275
same,logFC,"[2]; experiment wp137, direction down",−0.3275
same,logFC,"[2]; experiment wp147, 4 uM",−0.5831
same,logFC,[2]; [7],−0.5831
same,logFC,"[3]; experiment wp147, 2 uM",−0.5015
same,logFC CDK1,"[3]; experiment wp147, 2 uM",−0.5015
same,logFC,"[3]; experiment wp147, 4 uM",−0.5416
same,logFC CDK1,"[3]; experiment wp147, 4 uM",−0.5416
NC(=O)c1c(F)cccc1Nc1nc(Nc2ccc(S(=O)(=O)NCCOCCOCCOCCOCCNc3cccc4c3C(=O)N(C3CCC(=O)NC3=O)C4=O)cc2)ncc1Br (stereo not shown) [TMX.02.138],logFC,[3]; experiment wp146,−1.641
same,logFC CDK1,[3]; experiment wp146,−1.641
CC(=O)c1c(C)c2cnc(Nc3ccc(N4CCN(CCOCCOCCOCCNC(=O)COc5cccc6c5C(=O)N(C5CCC(=O)NC5=O)C6=O)CC4)cn3)nc2n(C2CCCC2)c1=O (stereo not shown) [BSJ.03.123],logFC,[2]; experiment wp084,−0.4553
same,logFC,[2]; [6],−0.4553
"Cc1ncsc1-c1ccc([C@H](C)NC(=O)[C@@H]2C[C@@H](O)CN2C(=O)[C@@H](NC(=O)CCCCCN2CCN(c3ccc(Nc4ncc5scc(-c6cccc(NS(C)(=O)=O)c6)c5n4)cc3)CC2)C(C)(C)C)cc1 [RSS0680, (2S,4R)-1-((S)-3,3-Dimethyl-2-(6-(4-(4-((7-(3-(methylsulfonamido)phenyl)thieno[3,2-d]pyrimidin-2-yl)amino)phenyl)piperazin-1-yl)hexanamido)butanoyl)-4-hydroxy-N—((S)-1-(4-(4-methylthiazol-5yl)phenyl)ethyl)pyrrolidine-2-carboxamide]",logFC,[3]; experiment wp117,−0.3587
same,logFC CDK1,[3]; experiment wp117,−0.3587
CC(C)(C)c1nc(-c2cccc(NS(=O)(=O)c3c(F)cccc3F)c2F)c(-c2ccnc(NCCOCCNC(=O)CCOCCOCCNc3cccc4c3CN(C3CCC(=O)NC3=O)C4=O)n2)s1 (stereo not shown) [DD.03.107],logFC,"[2]; experiment wp147, 4 uM",−1.113
same,logFC,[2]; [7],−1.113
CCc1cnn2c(N(Cc3ccc(N)nc3)C(=O)CCOCCOCCOCCNC(=O)CNc3cccc4c3C(=O)N(C3CCC(=O)NC3=O)C4=O)cc(N3CCCC[C@H]3CCO)nc12 (stereo partly shown) [MFH.5.115.2],logFC,[5],−0.8067
same,logFC RIOK2,[5],−0.8067
